Results published in PubChem BioAssay (NCI).
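Grown in 96-well plates, cells were treated for 48 hours with each compound at five concentrations. Insufficient inhibition: endpoint recorded as highest concentration tested. Definition used: TGI = concentration required for complete inhibition of growth.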

Assays:
Experiment in all cases: NCI tumour cell line growth inhibition, 48 h
[1] = system: UACC-257 melanoma
[2] = system: SK-OV-3 ovarian
[3] = system: SN12C renal
[4] = system: HT29 colon
[5] = system: UO-31 renal
[6] = system: SF-295 CNS
[7] = system: OVCAR-5 ovarian
[8] = system: U251 CNS
[9] = system: SNB-19 CNS
[10] = system: HOP-62 NSCLC
[11] = system: UACC-62 melanoma
[12] = system: SNB-78 CNS
[13] = system: RXF 393 renal
[14] = system: HOP-18 NSCLC
[15] = system: HCT-15 colon
[16] = system: HCT-116 colon
[17] = system: P388 leukemia
[18] = system: M19-MEL melanoma
[19] = system: KM20L2 colon
[20] = system: A549 NSCLC
[21] = system: NCI-H522 lung
[22] = system: HOP-92 NSCLC
[23] = system: A498 renal
[24] = system: DMS 273 small cell lung
[25] = system: IGROV1 ovarian
[26] = system: SK-MEL-5 melanoma
[27] = system: KM12 colon
[28] = system: SF-539 CNS
[29] = system: OVCAR-4 ovarian
[30] = system: DLD-1 colon
[31] = system: CCRF-CEM leukemia
[32] = system: K-562 leukemia
[33] = system: SN12K1 renal
[34] = system: XF 498 CNS
[35] = system: MALME-3M melanoma
[36] = system: OVCAR-3 ovarian
[37] = system: COLO 205 colon
[38] = system: DMS 114 small cell lung
[39] = system: NCI-H23 lung
[40] = system: NCI-H460 lung
[41] = system: SW-620 colon
[42] = system: SF-268 CNS
[43] = system: P388/ADR leukemia
[44] = system: LOX IMVI melanoma
[45] = system: CAKI-1 renal
[46] = system: RPMI-8226 leukemia
[47] = system: MCF7 breast
[48] = system: NCI-H226 lung
[49] = system: HL-60(TB) leukemia
[50] = system: SK-MEL-28 melanoma
[51] = system: SK-MEL-2 melanoma
[52] = system: EKVX NSCLC
[53] = system: MOLT-4 leukemia
[54] = system: HCC-2998 colon
[55] = system: OVCAR-8 ovarian
[56] = system: SNB-75 CNS
[57] = system: NCI/ADR-RES ovarian
[58] = system: SR leukemia
[59] = system: RXF-631 renal
[60] = system: ACHN renal
[61] = system: M14 melanoma
[62] = system: TK-10 renal
[63] = system: LXFL 529 NSCLC
[64] = system: 786-0 renal

N#CC(OC1OC(COC2OC(CO)C(O)C(O)C2O)C(O)C(O)C1O)c1ccccc1 (stereo not given)
TGI [1]: > 225 µM | TGI [2]: > 225 µM | TGI [3]: > 225 µM | TGI [4]: > 225 µM | TGI [5]: > 225 µM | TGI [6]: > 225 µM | TGI [7]: > 225 µM | TGI [8]: > 225 µM | TGI [9]: > 225 µM | TGI [10]: > 225 µM | TGI [11]: > 225 µM | TGI [12]: > 225 µM | TGI [13]: > 225 µM | TGI [14]: > 225 µM | TGI [15]: > 225 µM | TGI [16]: > 225 µM | TGI [17]: > 225 µM | TGI [18]: > 225 µM | TGI [19]: > 225 µM | TGI [20]: > 225 µM | TGI [21]: > 225 µM | TGI [22]: > 225 µM | TGI [23]: > 225 µM | TGI [24]: > 225 µM | TGI [25]: > 225 µM | TGI [26]: > 225 µM | TGI [27]: > 225 µM | TGI [28]: > 225 µM | TGI [29]: > 225 µM | TGI [30]: > 225 µM | TGI [31]: > 225 µM | TGI [32]: > 225 µM | TGI [33]: > 225 µM | TGI [34]: > 225 µM | TGI [35]: > 225 µM | TGI [36]: > 225 µM | TGI [37]: > 225 µM | TGI [38]: > 225 µM | TGI [39]: > 225 µM | TGI [40]: > 225 µM | TGI [41]: > 225 µM | TGI [42]: > 225 µM | TGI [43]: > 225 µM | TGI [44]: > 225 µM | TGI [45]: > 225 µM | TGI [46]: > 225 µM | TGI [47]: > 225 µM | TGI [48]: > 225 µM | TGI [49]: > 225 µM | TGI [50]: > 225 µM | TGI [51]: > 225 µM | TGI [52]: > 225 µM | TGI [53]: > 225 µM | TGI [54]: > 225 µM | TGI [55]: > 225 µM | TGI [56]: > 225 µM | TGI [57]: > 225 µM

CC(C)C(=O)Nc1nc2c(ncn2C2OC(CO)C(O)C2O)c(=O)[nH]1 (stereo not given)
TGI [1]: > 100 µM | TGI [2]: > 100 µM | TGI [3]: > 100 µM | TGI [58]: > 100 µM | TGI [59]: > 100 µM | TGI [4]: > 100 µM | TGI [5]: > 100 µM | TGI [6]: > 100 µM | TGI [7]: > 100 µM | TGI [60]: > 100 µM | TGI [8]: > 100 µM | TGI [10]: > 100 µM | TGI [11]: > 100 µM | TGI [12]: > 100 µM | TGI [13]: > 100 µM | TGI [14]: > 100 µM | TGI [15]: > 100 µM | TGI [16]: > 100 µM | TGI [18]: > 100 µM | TGI [19]: > 100 µM | TGI [20]: > 100 µM | TGI [21]: > 100 µM | TGI [22]: > 100 µM | TGI [23]: > 100 µM | TGI [24]: > 100 µM | TGI [25]: > 100 µM | TGI [26]: > 100 µM | TGI [27]: > 100 µM | TGI [28]: > 100 µM | TGI [29]: > 100 µM | TGI [30]: > 100 µM | TGI [31]: > 100 µM | TGI [32]: > 100 µM | TGI [34]: > 100 µM | TGI [35]: > 100 µM | TGI [36]: > 100 µM | TGI [37]: > 100 µM | TGI [38]: > 100 µM | TGI [39]: > 100 µM | TGI [40]: > 100 µM | TGI [41]: > 100 µM | TGI [42]: > 100 µM | TGI [44]: > 100 µM | TGI [45]: > 100 µM | TGI [46]: > 100 µM | TGI [48]: > 100 µM | TGI [61]: > 100 µM | TGI [49]: > 100 µM | TGI [62]: > 100 µM | TGI [50]: > 100 µM | TGI [51]: > 100 µM | TGI [63]: > 100 µM | TGI [52]: > 100 µM | TGI [53]: > 100 µM | TGI [54]: > 100 µM | TGI [64]: > 100 µM | TGI [55]: > 100 µM | TGI [56]: > 100 µM
